Reference: patent US7101537B2, “Tricyclic quinoxaline and quinoline derivatives as a UV filter” (Merck Patentgesellschaft, priority 2001, dated 2006)

Assay: maxima of UV-A and UV-B absorption of quinoxaline derivatives in 2-propanol
Assay type: physicochemical
Conditions: 1 mg of substance per 100 ml of solvent; for UV-A (400 320 nm) Max. abs.: absorbance at UV-A maximum; for UV-A (400 320 nm) λ[nm]: wavelength of UV-A maximum; for UV-B (280 320 nm) Max. abs.: absorbance at UV-B maximum; for UV-B (280 320 nm) λ[nm]: wavelength of UV-B maximum
Protocol: The measurement was carried out in 2-propanol at a concentration of 1 mg of substance per 100 ml of solvent.

Row | UV-A (400 320 nm) Max. abs. | UV-A (400 320 nm) λ[nm] | SMILES | UV-B (280 320 nm) Max. abs. | UV-B (280 320 nm) λ[nm]
1 | 0.5227 | 328.0 | c1ccc2nc3[nH]cnc3nc2c1 |  | 
2 | 0.5824 | 327.5 | Cc1nc2nc3ccccc3nc2[nH]1 |  | 
3 | 0.4875 | 327.5 | FC(F)(F)c1nc2nc3ccccc3nc2[nH]1 |  | 
4 | 0.6290 | 330.0 | CC(C)(C)c1nc2nc3ccccc3nc2[nH]1 |  | 
5 | 0.7037 | 358.0 | FC(F)(F)c1cc(-c2nc3nc4ccccc4nc3[nH]2)cc(C(F)(F)F)c1 |  | 

Continued, molecule first:

Row | SMILES | UV-A (400 320 nm) Max. abs. | UV-A (400 320 nm) λ[nm] | UV-B (280 320 nm) Max. abs. | UV-B (280 320 nm) λ[nm]
6 | CC(=O)c1ccc(-n2c(-c3ccccc3)cc3nc4ccccc4nc32)cc1 | 0.4067 | 359.0 |  | 
7 | c1ccc(-c2cc3nc4ccccc4nc3[nH]2)cc1 | 0.7158 | 367.0 | 0.8710 | 268.0
8 | c1ccc2nc3[nH]ccc3nc2c1 | 0.5381 | 338.0 |  | 
9 | CC(=O)c1ccc(-n2c([SiH2]C(C)C)cc3nc4ccccc4nc32)cc1 | 0.5774 | 403.0 | 0.4246 | 318.0
10 | O=C(O)c1ccc(-n2c(-c3ccccc3)cc3nc4ccccc4nc32)cc1 | 0.3685 | 358.0 |  | 
